# Source: US7083969B2, “Serratia marcescens strain” (Korea Research Institute of Bioscience and Biotechnology, priority 1997, dated 2006)
# Key:
# T lymphocytes [1] = test: T cell-dependent immune response in vivo (antibody producing cells after sheep red blood cell immunization); set-up: species or system mice; details: for Immune Response (%): 4 days after immunization
# Description: (§1) Germ-free test animals, mice BDF1 and B6C3F1, obtained from Genetic Resources Center, Korean Research Institute of Bioscience and Biotechnology in the Korean Institute of Science and Technology, were used for the assay of the immunosuppressive activity of prodigiosin. […] At such concentrations as show no cytotoxic effects, prodigiosin cannot suppress the immune response of B lymphocytes. […] This selective immunosuppression for T lymphocytes is not ascribed to the selective cytotoxicity for T lymphocytes. The same immunosuppression results as in the ex vivo experiments were obtained in in vivo experiments. When T lymphocyte activity was measured by use of a graft versus host reaction and a T cell-dependent antibody producing reaction, the prodigiosin suppressed the immune response, but exerted no toxicity on animals. Therefore, the immunosuppressive activity of the prodigiosin is thought to be attributed to the selective suppression for T lymphocyte activity.
# A T cell-dependent immune response reaction was used to assess the influence of prodigiosin on T lymphocytes in vivo. Test animals were immunized with sheep red blood cells by peritoneal injection. 4 days after the immunization, the number of the antibody producing cells was counted. Prodigiosin was peritoneally injected everyday. Based on the number of the […] cells in the non-treated animals, the influence of prodigiosin on T lymphocytes in vivo was assessed as percentage. Also, the weight ratio of the spleen to the body was measured to assay the toxicity of prodigiosin to the animals. Cyclophosphamide was used as a positive control.
# B and T lymphocytes [2] = test: T-cell dependent antibody producing reaction in vitro (sheep red blood cells); type: cell-based, mice
# Description: as §1
# (§2) The influence of prodigiosin on the functions of lymphocytes was measured using three reaction systems. First, the ability of B lymphocyte to proliferate in response to lipopolysaccharide stimulus was assessed. For this, on the third day after stimulation with lipopolysaccharide, the antibody production of the B lymphocyte was measured. When B lymphocytes are stimulated with lipopolysaccharide, they can produce antibodies without the aid of T lymphocyte. Second, a mixed lymphocyte reaction was induced in order to assess the effect on T-cell response. The reaction needs no aids from the B lymphocyte. On the third day after two types of heteroimmune cells, which are different from each other in histocompatibility antigen, were mixed to stimulate the activity of T lymphocytes, the T-cell response-was assessed. Third, the T-cell dependent antibody producing reaction was utilized to assess the effect of prodigiosin on the simultaneous immune response of both of the B and T lymphocytes. This reaction requires the functions of B and T lymphocytes, simultaneously. On the fifth day after immunization of the lymphocytes with the red blood cells of sheep, their antibody production ability was assessed.
# (§3) In Table 3, the values are relative to the immune response of the lymphocytes untreated with prodigiosin.
# B lymphocyte [3] = test: Lipopolysaccharide-induced B lymphocyte proliferation (DNA synthesis); type: cell-based, mice; details: for Proliferation (%) B cell: three days
# Description: as §1
# (§4) Three standard substances which induce lymphocytes to proliferate were employed to measure the effect of the prodigiosin on proliferation of lymphocytes. 5 μg/ml of lipopolysaccharide were used to induce B lymphocyte to proliferate, 5 μg/ml of Concanavalin A for T lymphocyte and 5 μg/ml of Pokeweed mitogen for B and T lymphocytes, both. Prodigiosin was added, together with the proliferation-inducing substance. Three days after the addition, the proliferation effect was monitored by measuring the amount of DNA synthesized. In order to exclude the cytotoxicity of prodigiosin, it was used at a concentration of not more than 100 nM. In Table 2, the proliferation percentages mean the proliferated amounts of prodigiosin-treated lymphocytes relative to that of an non-treated group. As shown, the suppression percentage effected by prodigiosin in amounts of 30–100 nM reaches up to 96–98% for the T lymphocyte induced by concanavalin A while the proliferation of B lymphocyte induced by lipopolysaccharide and the proliferation of B/T lymphocytes induced by pokeweed mitogen are suppressed to the extent of 13–19% and 45–83%, respectively.
# B lymphocyte [4] = test: Antibody production of B lymphocytes stimulated with lipopolysaccharide; type: cell-based, mice; details: for effect on antibody production / immune response of B lymphocytes (words): non-cytotoxic concentration range (3-100 nM)
# Description: as §1, §2, §3
# CD8 T lymphocytes = test: Immunosuppressive activity on CD8 T lymphocytes; type: cell-based
# T lymphocytes [5] = test: Mixed lymphocyte reaction (T-cell response); type: cell-based, mice; details: for Immune Response (%) T cell: third day
# Description: as §1, §2, §3
# [6] = test system: CD8 T cell (cytotoxic T cell); test: Selective cytotoxicity: proportion of CD8 T cells after treatment; type: cell-based, mice; details: proportion of the cells
# Description: as §1
# Whether the selective immunosuppression of prodigiosin for T cells is attributed to the selective cytotoxicity for T cells or not was assayed by measuring the proportion of the cells. On the third day after treatment of the immune cells with prodigiosin, the number of the cells was counted. Because T lymphocytes consist of CD4 T cell (helper T cell) and CD8 T cell (cytotoxic T cell), the proportion of T and B lymphocytes was calculated in this Example.
# B and T lymphocytes [7] = test: Pokeweed mitogen-induced B and T lymphocyte proliferation (DNA synthesis); type: cell-based, mice; details: for Proliferation (%) B/T cells: three days
# Description: as §1, §4
smiles,measurement,setting,value
"CCCCCC1=C/C(=C/c2[nH]c(-c3ccc[nH]3)cc2OC)N=C1C [Prodigiosin, prodigiosin]",Immune Response (%),"T lymphocytes [1]; 10 mg/kg peritoneally everyday, antibody producing cells vs non-treated animals",32%
same,Immune Response (%),T lymphocytes [1]; 30 mg/kg peritoneally everyday,27%
same,number of the antibody-producing cells,T lymphocytes [1]; peritoneal injection everyday,significantly reduced
same,Immune Response (%) B/T cells,"B and T lymphocytes [2]; 3 nM, antibody production, fifth day after sheep red blood cells, relative to untreated lymphocytes",81%
same,Immune Response (%) B/T cells,"B and T lymphocytes [2]; 10 nM, fifth day",74%
same,Immune Response (%) B/T cells,"B and T lymphocytes [2]; 30 nM, fifth day",64%
same,Immune Response (%) B/T cells,"B and T lymphocytes [2]; 100 nM, fifth day",34%
same,Proliferation (%) B cell,"B lymphocyte [3]; 3 nM, 5 μg/ml lipopolysaccharide, relative to non-treated group",101%
same,Proliferation (%) B cell,"B lymphocyte [3]; 10 nM, lipopolysaccharide",105%
same,Proliferation (%) B cell,"B lymphocyte [3]; 30 nM, lipopolysaccharide",87%
same,Proliferation (%) B cell,"B lymphocyte [3]; 100 nM, lipopolysaccharide",81%
same,suppression of proliferation of B lymphocyte induced by lipopolysaccharide,B lymphocyte [3]; 30–100 nM,13–19%
same,effect on proliferation of B lymphocytes,B lymphocyte [3]; non-cytotoxic concentrations,no influence
same,Immune Response (%) B cell,"B lymphocyte [4]; 3 nM, antibody production, third day after lipopolysaccharide, relative to untreated lymphocytes",116%
same,Immune Response (%) B cell,"B lymphocyte [4]; 10 nM, third day",108%
same,Immune Response (%) B cell,"B lymphocyte [4]; 30 nM, third day",100%
same,Immune Response (%) B cell,"B lymphocyte [4]; 100 nM, third day",97%
same,effect on antibody production / immune response of B lymphocytes (words),B lymphocyte [4],no influence
same,effect on antibody production / immune response of B lymphocytes (words),B lymphocyte [4]; listed as prodigiosin,not at all
same,immunosuppressive activity on CD8 T lymphocytes,CD8 T lymphocytes,has an immunosuppressive activity
same,Immune Response (%) T cell,"T lymphocytes [5]; 3 nM, mixed lymphocyte reaction, relative to untreated lymphocytes",111%
same,Immune Response (%) T cell,T lymphocytes [5]; 10 nM,110%
same,Immune Response (%) T cell,T lymphocytes [5]; 30 nM,67%
same,Immune Response (%) T cell,T lymphocytes [5]; 100 nM,30%
same,immune response in which T lymphocytes are involved,T lymphocytes [5]; Table 3 concentration range,significantly suppressed
same,Proliferation (%) CD8 T cell,"[6]; 3 nM, third day after treatment",13%
same,Proliferation (%) CD8 T cell,"[6]; 10 nM, third day",13%
same,Proliferation (%) CD8 T cell,"[6]; 30 nM, third day",12%
same,Proliferation (%) CD8 T cell,"[6]; 100 nM, third day",10%
same,Proliferation (%) B/T cells,"B and T lymphocytes [7]; 3 nM, 5 μg/ml Pokeweed mitogen, relative to non-treated group",100%
same,Proliferation (%) B/T cells,"B and T lymphocytes [7]; 10 nM, Pokeweed mitogen",86%
same,Proliferation (%) B/T cells,"B and T lymphocytes [7]; 30 nM, Pokeweed mitogen",55%
same,Proliferation (%) B/T cells,"B and T lymphocytes [7]; 100 nM, Pokeweed mitogen",17%
same,suppression of proliferation of B/T lymphocytes induced by pokeweed mitogen,B and T lymphocytes [7]; 30–100 nM,45–83%
